Here are results for eight compounds from patent publication US20150202167A1, “Trans-Clomiphene Formulations and Uses Thereof” (REPROS THERAPEUTICS INC., priority 2012, published 2015).

For data set [1] the following is noted: noted by Ernst et al.; cited from earlier work.
The conditions of data set [2]: cited from earlier work.
Data set [3] in a line: Particle size analysis by laser diffraction (Malvern Mastersizer 2000). In kind it is physicochemical. Conditions: for d10: 10% of the total volume of particles is less than the indicated size; for d10 / d50 / d90: final method conditions, 0.1% (w/v) Span 85 in hexane; for d50: 50% of the total volume of particles is less than the indicated size; for d90: 90% of the total volume of particles is less than the indicated size. From the text:
Trans-clomiphene is characterized for size using an instrument adapted to measure equivalent spherical volume diameter, such as a Malvern Mastersizer 2000 laser diffraction particle size analyzer or equivalent instrument. After being characterized for size, the trans-clomiphene is then milled, if necessary, preferably using a pin mill under suitable conditions of mill rotation rate and feed rate, to bring the particle size value within the above mentioned limits according to the invention. The efficiency of milling is checked by sampling using a Malvern Mastersizer 2000 laser diffraction particle size analyzer and the final particle size is checked in a similar manner.
The values found from characterizing a large number of “unknown” particles can be plotted frequency vs. diameter. This gives a characteristic curve representing size distribution of the sample, i.e., cumulative percentage under size distribution curve. Values from this can be read off directly or plotted on log-probability paper to give an appropriate straight line. The mean equivalent spherical volume diameter is the 50% undersize value. The mean equivalent spherical volume diameter found is thus a statistical representation of a theoretical particle having the same property as the “unknown” particle. The following is a description by way of example.
Repeated particle size measurements of the sample dispersed in 0.1% (w/v) Span™ 85 in hexane were collected while recirculating over the course of approximately five minutes with a pump speed of 1000 rpm. Particle size (d10, d50, d90) was plotted versus the recirculation time. Values for both the d10 and d50 fell within a narrow range for the duration. The decrease in the d90 primarily occurred over the first 90 seconds with a gradual decrease thereafter.
Repeated particle size measurements of the sample were collected while recirculating for 90 seconds with increasing pump speeds to examine the effect of pump speed on particle size. […] A pump speed of 1500 rpm was selected to optimize both dispersion of agglomerates and suspension of the larger particles and to minimize attrition of the blades and needles.
One particle size measurement of each sample of trans-clomiphene citrate was collected using the final method conditions. Three of the lots shared a similar bimodal particle size distribution whereas one lot contained a third mode consisting of much larger particles. The remaining lot of was bimodal but reflected much larger particle sizes than the distributions of the earlier three lots with bimodal distributions.
Particle size data was acquired using a Malvern Instruments MS2000 equipped with a Hydro 2000 μP dispersion unit. Data was collected and analyzed using Mastersizer 2000 v. 5.60 software using volume based measurements. NIST-traceable glass beads were used as the reference standard.
Particle size of trans-clomiphene citrate using the final method conditions is reproduced below: […]

The nature of data set [4]: Evaluation of dispersants for trans-clomiphene citrate. In kind it is physicochemical. To be noted: 0.01% (w/v) Tween 20 (polysorbate 20) in water. Here is the method:
0.1% (w/v) Lecithin in Isopar G™, 0.1% (w/v) Span™ 85 (sorbitane trioleate) in hexane, and 0.01% (w/v) Tween® 20 (polysorbate 20) in water were evaluated as dispersants for trans-clomiphene citrate. Samples suspended easily in each of the two organic dispersants and settled out of suspension slowly. […] Samples dispersed in the Isopar G™-based and hexane-based dispersants were examined microscopically. […] 0.1% (w/v) Span™ 85 in hexane was selected for further analysis.

`CCN(CC)CCOc1ccc(/C(=C(/Cl)c2ccccc2)c2ccccc2)cc1` (single isomer, unassigned) [trans-isomer, trans-2-(p-(2-chloro-1,2-diphenylvinyl)phenoxy)triethylamine]: in data set [1], the “estrogenic / antiestrogenic character” value is given as “antiestrogenic”.
In the case of `CCN(CC)CCOc1ccc(C(=C(Cl)c2ccccc2)c2ccccc2)cc1` [clomiphene], in data set [2] (both young and old men after treatment with clomiphene), the “FSH, LH” value is “increases”. Besides, the “free and total testosterone” value in data set [2] (men, young men showing significant increases) is given as “increases”.
In data set [3], `CCN(CC)CCOc1ccc(/C(=C(/Cl)c2ccccc2)c2ccccc2)cc1.O=C(O)CC(O)(CC(=O)O)C(=O)O` [compound 16204] yielded a d10 of 8.058 μm, a d50 of 106.743 μm and a d90 of 318.464 μm.
In data set [3], `CCN(CC)CCOc1ccc(/C(=C(/Cl)c2ccccc2)c2ccccc2)cc1.O=C(O)CC(O)(CC(=O)O)C(=O)O` [compound 24712] gave a d10 of 4.038 μm, a d50 of 13.902 μm and a d90 of 218.573 μm.
In data set [3], `CCN(CC)CCOc1ccc(/C(=C(/Cl)c2ccccc2)c2ccccc2)cc1.O=C(O)CC(O)(CC(=O)O)C(=O)O` [compound 24867] had a d10 of 4.794 μm, a d50 of 13.418 μm and a d90 of 70.289 μm.
`CCN(CC)CCOc1ccc(/C(=C(/Cl)c2ccccc2)c2ccccc2)cc1.O=C(O)CC(O)(CC(=O)O)C(=O)O` [compound 31249]: in data set [3], the d10 turned out to be 4.850 μm, the d50 is reported as 13.455 μm and the d90 came to 76.891 μm.
In data set [3], `CCN(CC)CCOc1ccc(/C(=C(/Cl)c2ccccc2)c2ccccc2)cc1.O=C(O)CC(O)(CC(=O)O)C(=O)O` [compound 32305] came in with a d10 of 3.373 μm. The compound also displayed a d50 in data set [3] of 9.664 μm. The same compound registered a d90 in data set [3] of 44.995 μm. Further, the Vol under % in data set [3] (size 0.010 μm), in data set [3] (size 0.011 μm), in data set [3] (size 0.013 μm), in data set [3] (size 0.015 μm), in data set [3] (size 0.017 μm) and in data set [3] (size 0.020 μm) was 0.00% throughout. In addition, the Vol under % in data set [3] (size 0.023 μm), in data set [3] (size 0.026 μm), in data set [3] (size 0.030 μm), in data set [3] (size 0.035 μm), in data set [3] (size 0.040 μm) and in data set [3] (size 0.046 μm) was 0.00% in each case. Also, the Vol under % in data set [3] (size 0.052 μm), in data set [3] (size 0.060 μm), in data set [3] (size 0.069 μm), in data set [3] (size 0.079 μm), in data set [3] (size 0.091 μm) and in data set [3] (size 0.105 μm) was 0.00% throughout. Besides, the Vol under % in data set [3] (size 0.120 μm), in data set [3] (size 0.138 μm), in data set [3] (size 0.158 μm), in data set [3] (size 0.182 μm), in data set [3] (size 0.209 μm) and in data set [3] (size 0.240 μm) was 0.00% each time. Also, the Vol under % in data set [3] (size 0.275 μm), in data set [3] (size 0.316 μm), in data set [3] (size 0.363 μm), in data set [3] (size 0.417 μm), in data set [3] (size 0.479 μm) and in data set [3] (size 0.550 μm) was 0.00% throughout. Moreover, the Vol under % in data set [3] (size 0.631 μm) was 0.00%; in data set [3] (size 0.724 μm), 0.00%; in data set [3] (size 0.832 μm), 0.00%; in data set [3] (size 0.965 μm) it was 0.02%; in data set [3] (size 1.096 μm) it was 0.10%; in data set [3] (size 1.259 μm) it was 0.28%. In addition, the Vol under % in data set [3] (size 1.445 μm) worked out at 0.60%; in data set [3] (size 1.660 μm) it was 1.12%; in data set [3] (size 1.905 μm), 1.93%; in data set [3] (size 2.188 μm), 3.10%; in data set [3] (size 2.512 μm) it was 4.72%; in data set [3] (size 2.884 μm) it was 6.86%. Also, the Vol under % in data set [3] (size 3.311 μm) was 9.59%; in data set [3] (size 3.802 μm), 12.94%; in data set [3] (size 4.385 μm) it was 16.94%; in data set [3] (size 5.012 μm) it was 21.58%; in data set [3] (size 5.754 μm), 26.82%; in data set [3] (size 6.607 μm), 32.58%. Further, the Vol under % in data set [3] (size 7.586 μm) is 38.74%; in data set [3] (size 8.710 μm), 45.14%; in data set [3] (size 10.00 μm), 51.59%; in data set [3] (size 11.482 μm), 57.87%; in data set [3] (size 13.183 μm) it was 63.80%; in data set [3] (size 15.136 μm) it was 69.20%. In addition, the Vol under % in data set [3] (size 17.378 μm) is reported as 73.95%; in data set [3] (size 19.953 μm), 77.98%; in data set [3] (size 22.909 μm), 81.29%; in data set [3] (size 26.303 μm), 83.92%; in data set [3] (size 30.200 μm) it was 85.99%; in data set [3] (size 34.674 μm) it was 87.62%. Further, the Vol under % in data set [3] (size 39.811 μm) was determined as 88.95%; in data set [3] (size 45.709 μm) it was 90.13%; in data set [3] (size 52.481 μm) it was 91.28%; in data set [3] (size 60.256 μm), 92.50%; in data set [3] (size 69.183 μm) it was 93.84%; in data set [3] (size 79.433 μm) it was 95.28%. The Vol under % turned out to be 96.72% in data set [3] (size 91.201 μm); 98.02% in data set [3] (size 104.713 μm); 99.04% in data set [3] (size 120.226 μm); 99.72% in data set [3] (size 138.038 μm); 99.97% in data set [3] (size 158.489 μm); 100.00% in data set [3] (size 181.970 μm). Also, the Vol under % in data set [3] (size 208.930 μm), in data set [3] (size 239.883 μm), in data set [3] (size 275.423 μm), in data set [3] (size 316.228 μm), in data set [3] (size 363.078 μm) and in data set [3] (size 416.869 μm) was 100.00% throughout. The Vol under % in data set [3] (size 478.630 μm), in data set [3] (size 549.541 μm), in data set [3] (size 630.957 μm), in data set [3] (size 724.438 μm), in data set [3] (size 831.764 μm) and in data set [3] (size 954.993 μm) was 100.00% in each case. Besides, the Vol under % in data set [3] (size 1096.478 μm) is 100.00%.
Regarding trans-clomiphene citrate, the “Dissolution of the sample suspended in aqueous dispersant” value in data set [4] is “Partial dissolution”.
